# Data as given in US20240239790A1, “7-Morpholino-1,6-Naphthyridin-5-yl Derivatives and Pharmaceutical Compositions Thereof Useful as DNA-PK Inhibitor” (adMare Therapeutics Society, priority 2021, published 2024).
# Like-named read-outs stand apart in the source and are kept apart here.
# Tests used:
# [1] = test system: pDNA-PK induction in HCT116 tumour spheroids; test: Multicellular tumour spheroid + radiation, pDNA-PK (ser2056) inhibition, immunohistochemical endpoint, HCT116; assay type: cell-based; conditions: 20 Gy, 20% O2
# Procedure: Multicellular tumour spheroids determination of compound inhibition of pDNA-PK induction following radiation. Tumour spheroids were grown to approximately 0.5 mm in diameter and irradiated with 20 Gy in combination with inhibitor test compounds to determine their potency. Inhibitor concentration for 50% reduction in pDNA-PK induction (IC50) was determined via immunohistochemical staining in spheroid cryosections taken 2 hours following radiation.
# (§1) Spheroid+radiation pDNA-PK. Radiation: 20 Gy. Drug: serial dilution 5 or 10 μM down to 3.5 nM (11 wells). Spheroids: 3-6 spheroids per well (300-500 μm diameter). 20% 02 and 5% CO2. 96 well plate format.
# Protocol: pre-incubate 1 hours with drug, irradiate with 20 Gy, post-incubate 2 hours with drug, freeze and cryosection ×3 replicates.
# Endpoint: fluorescent immunostin pDNA-PK ser2056 and image on microscope.
# Analysis: determine EC50 concentration that decreases pDNA-PK induction by 50% after radiation.
# Multicellular tumour spheroids determination of compound inhibition of pDNA-PK induction following radiation. Tumour spheroids were grown to approximately 0.5 mm in diameter and irradiated with 20 Gy in combination with inhibitor test compounds to determine their potency. Inhibitor concentration for 50% reduction in pDNA-PK induction (IC50) was determined via immunohistochemical staining in spheroid cryosections taken 2 hours following radiation. For cell survival endpoint 8 Gy radiation was used and 3 hours following radiation spheroids were dissociated, counted and plated for colony forming endpoint.
# as §1, with “format. Endpoint: fluorescent immunostain pDNA-PK ser2056 and image on microscope. Analysis: determine EC50 concentrations that decreases pDNA-PK induction by 50% after irradiation.” for “format.”
# Multicellular tumour spheroids were used to determine potency of test compounds in a 3D tissue environment using inhibition of pDNA-PK induction following radiation or cell survival as the endpoint. For the pDNA-PK endpoint HCT116 or FaDU tumour spheroids were grown to approximately 0.5 mm in diameter and irradiated with 20 Gy in combination with inhibitor test compounds to determine their potency. Experiments were carried out in 96 well plates containing 0.7 mls of MEM media containing 10% FBS and 10 mM glucose under 20% O2 & 5% CO2 at 37° C. Following dilution of compounds 1:1000 from DMSO stocks, compounds were serially diluted from 10 μM down to 3.5 nM and 5-10 spheroids added. 96 well plates were constantly stirred to avoid spheroids settling during the course of the experiment. The inhibitor concentration for 50% reduction in pDNA-PK induction (EC50) was determined via immunohistochemical staining in spheroid cryosections taken 2 hours following radiation using anti-pDNA-PK (ser 2056) and fixed immediately in formalin following sectioning. For cell survival endpoint 8 Gy radiation was used and, 3 hours following radiation, spheroids were dissociated, counted and plated for colony forming endpoint. Data presented in the table compound potency as EC50 [μM].
# DNA-PK = molecular target: T1, DNA-PK (Homo sapiens, UniProt P78527); test: DNA-PK Assay for Biochemical Enzymatic Inhibition (ADP Glo Kinase assay); conditions: DNA-PK enzyme, Table 1
# T1 construct: purchased Invitrogen PR9107A
# Procedure: A biochemical assay was performed to identify IC50 values against DNA-PK activity in a two-step reaction with a kinase reaction followed by ADP Glo™ Kinase assay Kit (Promega V9102).
# Three-fold serial dilutions of compounds in DMSO were prepared in kinase assay buffer (50 mM HEPES pH 7.5, 20 mM MgCl2, 100 mM KCl, 50 μM DTT, 10 μg/ml calf thymus DNA, 0.01% Tween 20). Kinase assay buffer was used to prepare compound treatments to 0.02% DMSO (dimethyl sulphoxide) content. DMSO controls were prepared to produce a maximum and minimum luminescence signal for normalization. Substrate (Anaspec, AS-60210-5) and ATP (Promega V9102) and ATP mix was prepared by dilution in kinase assay buffer for 434.4 μM and 64.4 μM final assay concentrations, respectively. Compounds and control were added to 25 ng DNA-PK enzyme (Invitrogen, PR9107A) diluted in kinase buffer in assay plate (Corning 267459) and incubated for 15 minutes at room temperature prior to addition of substrate and ATP mix.
# Throughout the assay, each time a reagent was added to the microplate, it was centrifuged for 1 minute at 1300 rcf. All reagents were added, and incubations carried out at room temperature. The reaction was then incubated for 60 minutes. ADP-ATP standards at 0, 4, 10, 40, 80, and 100% ADP (prepared as specified in the ADP Glo™ Kinase assay kit) were also added to the microplate at a volume equal to the total kinase reaction. The ADP Glo™ Kinase Assay kit was then used to quantify DNA-PK activity: following the 60-minute incubation, a 1:1 volume of ADP Glo reagent was added to all wells, then following a further 45-minute incubation, a 1:1 volume of Kinase Detection Reagent was added to all wells. After this two-step assay, plates were incubated in a Synergy-Neo2 plate reader for 30 minutes with gentle shaking, followed by endpoint luminescent read Luminescence data was normalized by subtracting the background signal and expressing all background-adjusted values as a percentage of the average maximum signal. The data was then expressed as percent inhibition by subtracting from 100% (i.e. maximum luminescent signal will be 0% inhibition) and the resulting data plotted against ten concentration points on a logarithmic scale, using GraphPad Prism. Non-linear regression analysis was performed on each concentration response curve and the log [inhibitor] vs response—variable slope (four parameters) equation was selected to generate IC50 values.
# [2] = molecular target: T2, DNA-PK phosphorylation at Serine 2056 (Homo sapiens, UniProt P78527); test: Cellular Assay for Inhibition of DNA-PK Phosphorylation at Serine 2056 in FaDu cells (sandwich ELISA, neocarzinostatin); assay type: cell-based; conditions: pSer2056 DNA-PK, neocarzinostatin 1 μg/mL, Table 1
# T2 construct: FaDu cells were purchased from ATCC; host or cells: FaDu
# Outline: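 FaDu cells pre-treated with compound (0.3% DMSO) for 1 h, then neocarzinostatin 1 μg/mL final added for 2 h to induce DSBs. Protein-normalised lysates read by sandwich ELISA for total and pSer2056 DNA-PK; % inhibition normalised between DMSO and NCS controls, IC50 from variable-slope log(inhibitor) fit.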
# [3] = Homo sapiens, HCT-116, 2 h, spheroids, Example 8, read-out: Cell line: HCT116 Immunohistochemical endpoint pDNA-PK inhibition EC50
# [4] = Homo sapiens, HCT-116, 2 hours following radiation, Example 9 Study 2, read-out: Spheroid Cell line: HCT116 Immunohistochemical endpoint pDNA-PK inhibition EC50
# [5] = Homo sapiens, HCT-116, Spheroid, Cell Line: HCT115 (so in the source), 2 hours following radiation, Example 7, read-out: EC50, Immunohistochemical endpoint, pDNA-PK inhibition
# [6] = 2 hours following radiation, Example 9 Study 2, read-out: Spheroid Cell line: HCT116 Immunohistochemical endpoint pDNA-PK inhibition EC50
# [7] = Spheroid, Cell Line: HCT115 (so in the source), 2 hours following radiation, Example 7, read-out: EC50, Immunohistochemical endpoint, pDNA-PK inhibition
# [8] = spheroids, Example 8, read-out: Cell line: HCT116 Immunohistochemical endpoint pDNA-PK inhibition EC50
"EC50 [1, 3]","EC50 [1, 4]","EC50 [1, 5]",IC50 (DNA-PK),IC50 [2],Compound,"EC50 [1, 6]","EC50 [1, 7]","EC50 [1, 8]"
1 to 10 µM,10 to 100 µM,10 to 100 µM,0.001 to 0.01 µM,1 to 10 µM,"CCOC(=O)c1cnc2cc(N3CCOCC3)nc(O[C@H]3CC[C@@H](Nc4ncc(OCC(=O)N(C)C)cn4)CC3)c2c1 [Compound 179, ethyl 5-(((1s,4s)-4-((5-(2-(dimethylamino)-2-oxoethoxy)pyrimidin-2-yl)amino)cyclohexyl)oxy)-7-morpholino-1,6-naphthyridine-3-carboxylate]",–,–,–
–,10 to 100 µM,10 to 100 µM,0.01 to 0.15 µM,10 to 30 µM,"c1ccc(CSc2cnc3cc(N4CCOCC4)nc(O[C@H]4CC[C@@H](Nc5ncccn5)CC4)c3c2)cc1 [Compound 200c, N-((1s,4s)-4-((3-(benzylthio)-7-morpholino-1,6-naphthyridin-5-yl)oxy)cyclohexyl)pyrimidin-2-amine]",–,–,–
–,–,–,0.01 to 0.15 µM,1 to 10 µM,"5-(((1s,4s)-4-(1H-imidazol-1-yl)cyclohexyl)oxy)-7-morpholino-N-propyl-1,6-naphthyridine-3-carboxamide [Compound 169]",10 to 100 µM,10 to 100 µM,10 to 100 µM
–,1 to 10 µM,1 to 10 µM,0.0005 to 0.001 µM,0.1 to 1 µM,"O=C(COc1cnc(N[C@H]2CC[C@@H](Oc3nc(N4CCOCC4)cc4ncccc34)CC2)nc1)N1CCCC1 [Compound 74, 2-((2-(((1s,4s)-4-((7-Morpholino-1,6-naphthyridin-5-yl)oxy)cyclohexyl)amino)pyrimidin-5-yl)oxy)-1-(pyrrolidin-1-yl)ethan-1-one]",–,–,–
–,10 to 100 µM,10 to 100 µM,0.001 to 0.01 µM,0.1 to 1 µM,"O=S(=O)(Nc1cnc2cc(N3CCOCC3)nc(O[C@H]3CC[C@@H](Nc4ncccn4)CC3)c2c1)C1CCC1 [Compound 191, N-(7-morpholino-5-(((1s,4s)-4-(pyrimidin-2-ylamino)cyclohexyl)oxy)-1,6-naphthyridin-3-yl)cyclobutanesulfonamide]",–,–,–
–,10 to 100 µM,10 to 100 µM,0.001 to 0.01 µM,1 to 10 µM,"CN(C)CCOc1cnc(C(=O)N[C@H]2CC[C@@H](Oc3nc(N4CCOCC4)cc4ncccc34)CC2)nc1 [Compound 126, 5-(2-(dimethylamino)ethoxy)-N-((1s,4s)-4-((7-morpholino-1,6-naphthyridin-5-yl)oxy)cyclohexyl)pyrimidine-2-carboxamide]",–,–,–
–,10 to 100 µM,10 to 100 µM,0.01 to 0.15 µM,–,"O=S(=O)(Nc1cnc2cc(N3CCOCC3)nc(O[C@H]3CC[C@@H](Nc4ncccn4)CC3)c2c1)C1CCCC1 [Compound 190, N-(7-morpholino-5-(((1s,4s)-4-(pyrimidin-2-ylamino)cyclohexyl)oxy)-1,6-naphthyridin-3-yl)cyclopentanesulfonamide]",–,–,–

# Further lines, the compound ahead of its results:
Compound,"EC50 [1, 3]","EC50 [1, 4]","EC50 [1, 5]",IC50 (DNA-PK),IC50 [2],"EC50 [1, 6]","EC50 [1, 7]","EC50 [1, 8]"
"O=C(NS(=O)(=O)C1CC1)c1cnc2cc(N3CCOCC3)nc(O[C@H]3CC[C@@H](n4ccnc4)CC3)c2c1 [Compound 174, 5-(((1s,4s)-4-(1H-imidazol-1-yl)cyclohexyl)oxy)-N-(cyclopropylsulfonyl)-7-morpholino-1,6-naphthyridine-3-carboxamide]",10 to 100 µM,10 to 100 µM,10 to 100 µM,0.001 to 0.01 µM,10 to 30 µM,–,–,–
"CN(C)S(=O)(=O)Nc1cnc2cc(N3CCOCC3)nc(O[C@H]3CC[C@@H](Nc4ncccn4)CC3)c2c1 [Compound 194, N-[(1s,4s)-4-({3-[(dimethylsulfamoyl)amino]-7-(morpholin-4-yl)-1,6-naphthyridin-5-yl}oxy)cyclohexyl]pyrimidin-2-amine]",–,1 to 10 µM,1 to 10 µM,< 0.0005 µM,0.1 to 1 µM,–,–,–
"O=C(COc1cnc(N[C@H]2CC[C@@H](Oc3nc(N4CCOCC4)cc4ncccc34)CC2)nc1)N1CCSCC1 [Compound 73, 2-((2-(((1s,4s)-4-((7-Morpholino-1,6-naphthyridin-5-yl)oxy)cyclohexyl)amino)pyrimidin-5-yl)oxy)-1-thiomorpholinoethan-1-one]",–,1 to 10 µM,1 to 10 µM,0.0005 to 0.001 µM,0.1 to 1 µM,–,–,–
"NC(=O)Nc1cnc2cc(N3CCOCC3)nc(O[C@H]3CC[C@@H](Nc4ncccn4)CC3)c2c1 [Compound 196, 1-(7-morpholino-5-(((1s,4s)-4-(pyrimidin-2-ylamino)cyclohexyl)oxy)-1,6-naphthyridin-3-yl)urea]",–,1 to 10 µM,1 to 10 µM,0.001 to 0.01 µM,0.1 to 1 µM,–,–,–
"O=C(Nc1ccc(F)cc1)N[C@H]1CC[C@@H](Oc2nc(N3CCOCC3)cc3ncccc23)CC1 [Compound 151, 1-(4-Fluorophenyl)-3-((1s,4s)-4-((7-morpholino-1,6-naphthyridin-5-yl)oxy)cyclohexyl)urea]",1 to 10 µM,1 to 10 µM,1 to 10 µM,0.001 to 0.01 µM,0.1 to 1 µM,–,–,–
"N=C(N)N[C@H]1CC[C@@H](Oc2nc(N3CCOCC3)cc3ncccc23)CC1 [Compound 16, 1-((1s,4s)-4-((7-morpholino-1,6-naphthyridin-5-yl)oxy)cyclohexyl)guanidine]",–,–,–,0.001 to 0.01 µM,1 to 10 µM,10 to 100 µM,10 to 100 µM,10 to 100 µM
